Measured values as given in patent US20240252456A1, “ORAL COMPOSITION, SKIN COSMETIC AND HAIR COSMETIC” (MARUZEN PHARMACEUTICALS CO., LTD., priority 2021, published 2024).

Key:
[1] = system: CLDN1 mRNA; test: Claudin-1 (CLDN1) mRNA expression promotive action test; type: cell-based, human; conditions: NHEK, 24 hours, corrected with GAPDH
Description: (§1) Normal human neonatal epidermal keratinocytes (NHEK) were precultured using normal human epidermal keratinocyte growth medium (KGM), and the cells were collected by a trypsin treatment. The collected cells were diluted with KGM to a cell density of 15×10^4 cells/mL, then seeded with 2 mL portions in a 6-well plate (30×10^4 cells/well), and cultured overnight under conditions of 37° C. and 5% CO2. After culturing, the medium was replaced with normal human epidermal keratinocyte basal medium (KBM, the above KGM without addition of growth additives (hEGF, BPE, insulin, antibacterial agents, hydrocortisone)), and culturing was further performed for 24 hours.
(§2) After culturing for 24 hours, the medium was removed, and 2 mL of each of test samples (Samples 1 and 3, see Table 19 below for final concentrations) dissolved in KBM was added to each well, and culturing was performed under conditions of 37° C. and 5% CO2 for 24 hours. As a control, culturing was performed in the same manner using KBM to which no sample was added. After culturing, the medium was removed, total RNA was extracted using ISOGEN II (available from NIPPON GENE CO., LTD.), each RNA amount was measured using a spectrophotometer, and the total RNA was prepared so as to be 150 ng/μL.
For CLDN1 and GAPDH as an internal standard, the expression levels of mRNA were measured using the above total RNA as a template. Detection was performed through a two-step real-time RT-PCR reaction using a real-time PCR device, Thermal Cycler Dice Real Time System III (available from Takara Bio Inc.), with PrimeScript™ RT Master Mix (Perfect Real Time) (available from Takara Bio Inc.) and TB Green® Fast qPCR Mix (available from Takara Bio Inc.). Primers available from Takara Bio Inc. were used. The expression level of CLDN1 mRNA was obtained as a value corrected with a value of GAPDH based on total RNA preparations prepared from cells cultured “with test sample addition” and “without sample addition.” From the obtained values, the CLDN1 mRNA expression promotion rate (%) was calculated using the following equation. […]

[2] = system: Normal human dermal fibroblasts (NB1RGB); test: Hyaluronic acid production promotive action test; type: cell-based; conditions: 3 days, A/B×100 vs no sample
Description: (§3) Normal human dermal fibroblasts (NB1RGB) were cultured using Dulbecco's modified Eagle's medium (DMEM) containing 10% FBS, and then the cells were collected by a trypsin treatment. The collected cells were diluted with DMEM containing 0.25% FBS to a cell density of 1.6×10^5 cells/mL, then seeded with 100 μL per well in a 96-well plate, and cultured overnight.
After the culturing was completed, 100 μL of each of test samples (Samples 1 and 2, see Table 9 below for final concentrations) dissolved in DMEM containing 0.25% FBS was added to each well, and culturing was performed for 3 days. As a control, culturing was performed in the same manner using DMEM containing 0.25% FBS to which no sample was added. After the culturing was completed, the amount of hyaluronic acid in the medium of each well was measured by a sandwich method using hyaluronic acid binding protein (HABP). From the obtained results, the hyaluronic acid production promotion rate (%) was calculated using the following equation.
Hyaluronic acid production promotion rate (%)=A/B×100
Terms in the equation represent the following respective ones. • A: Hyaluronic acid amount with test sample addition • B: Hyaluronic acid amount without sample addition

[3] = system: OCLN mRNA; test: Occludin (OCLN) mRNA expression promotive action test; type: cell-based, human; conditions: NHEK, 24 hours, corrected with GAPDH
Description: as §1
as §2, with “20” for “19”
For OCLN and GAPDH as an internal standard, the expression levels of mRNA were measured using the above total RNA as a template. Detection was performed through a two-step real-time RT-PCR reaction using a real-time PCR device, Thermal Cycler Dice Real Time System III (available from Takara Bio Inc.), with PrimeScript™ RT Master Mix (Perfect Real Time) (available from Takara Bio Inc.) and TB Green® Fast qPCR Mix (available from Takara Bio Inc.). Primers available from Takara Bio Inc. were used. The expression level of OCLN mRNA was obtained as a value corrected with a value of GAPDH based on total RNA preparations prepared from cells cultured “with test sample addition” and “without sample addition.” From the obtained values, the OCLN mRNA expression promotion rate (%) was calculated using the following equation. […]

[4] = system: Normal human dermal fibroblasts (NB1RGB); test: Elastin production promotive action test; type: cell-based; conditions: 5 days
Description: as §3, with “the above medium” for “DMEM containing 0.25% FBS”, “2.2×10^5” for “1.6×10^5”, “microplate,” for “plate,”
After the culturing was completed, the medium was removed, and 150 μL of each of test samples (Samples 2 and 3, see Table 7 below for final concentrations) dissolved in DMEM containing 0.25% FBS was added to each well, and culturing was performed for 5 days. As a control, culturing was performed in the same manner using DMEM containing 0.25% FBS to which no sample was added. After the culturing was completed, the supernatant was recovered, and the amount of elastin released in the culture supernatant was measured by ELISA method. From the measurement results, the elastin production promotion rate (%) was calculated using the following equation.
Terms in the equation represent the following respective ones. • A: Elastin amount with test sample addition • B: Elastin amount without sample addition

O=C(O)CCc1ccc(O)c(O)c1 [Sample 1, 3,4-Dihydroxyhydrocinnamic acid]
CLDN1 mRNA expression promotion rate ([1]; 25 μmol/L): 256.6% | CLDN1 mRNA expression promotion rate ([1]; 100 μmol/L): 568.6% | Hyaluronic acid production promotion rate ([2]; 25 μmol/L): 124.2% | OCLN mRNA expression promotion rate ([3]; 25 μmol/L): 209.9% | OCLN mRNA expression promotion rate ([3]; 100 μmol/L): 557.3%

O=C(O)CCc1ccc(O)cc1 [Sample 2, 3-(4-Hydroxyphenyl)propionic acid]
Hyaluronic acid production promotion rate ([2]; 50 μmol/L): 121.8% | Hyaluronic acid production promotion rate ([2]; 100 μmol/L): 119.3% | Hyaluronic acid production promotion rate ([2]; 200 μmol/L): 111.7% | Elastin production promotion rate ([4]; 15.6 μmol/L): 145.4% | Elastin production promotion rate ([4]; 62.5 μmol/L): 147.6% | Elastin production promotion rate ([4]; 250 μmol/L): 189.3%

O=C(O)CCc1ccccc1 [Sample 3, 3-phenylpropionic acid]
CLDN1 mRNA expression promotion rate ([1]; 25 μmol/L): 125.5% | Elastin production promotion rate ([4]; 62.5 μmol/L): 174.0% | Elastin production promotion rate ([4]; 250 μmol/L): 239.0% | OCLN mRNA expression promotion rate ([3]; 25 μmol/L): 141.5%
